ChEMBL document CHEMBL1955736, “The anomeric mixture of some O-galactolipid derivatives is more toxic against cancer cells than either anomer alone” (Bioorg Med Chem Lett, 2012)

How the values were obtained:
HeLa = assay: Cytotoxicity against human HeLa cells after 72 hrs by MTT assay; type: functional, cell-based
A549 = assay: Cytotoxicity against human A549 cells after 72 hrs by MTT assay; type: functional, cell-based; conditions: A549, 72 h
HepG2 = assay: Cytotoxicity against human HepG2 cells after 72 hrs by MTT assay; type: functional, cell-based; conditions: HepG2, 72 h
HCT-116 = assay: Cytotoxicity against human HCT116 cells after 72 hrs by MTT assay; type: functional, cell-based; conditions: HCT-116, 72 h
[1] = Cytotoxicity against mouse 3T3L1 cells assessed as viability at 100 ug/mL after 72 hrs by MTT assay; type: cell-based; conditions: 3T3-L1 cells, read-out: Activity

SMILES | IC50 (HeLa) [µM] | IC50 (A549) [µM] | IC50 (HepG2) [µM] | IC50 (HCT-116) [µM] | viability at 72 h, 100 ug/mL [1] [%]
CCCCCCCCCCCOC1O[C@H](CO)[C@H](O)[C@H](O)[C@H]1O (mixture of isomers) | 60.5 | 45.6 | 68.2 | 50.9 | –
CCCCCCCCCCCO[C@@H]1O[C@H](CO)[C@H](O)[C@H](O)[C@H]1O | 202 | 118 | 200 | 155 | –
CCCCCCCCCCCCCO[C@@H]1O[C@H](CO)[C@H](O)[C@H](O)[C@H]1O | 148 | 62 | 142 | 85.3 | –
CCCCCCCCCCCCOC1O[C@H](CO)[C@H](O)[C@H](O)[C@H]1O (mixture of isomers) | 58.6 | 40.8 | 63.4 | 47.7 | –
CCCCCCCCCCO[C@@H]1O[C@H](CO)[C@H](O)[C@H](O)[C@H]1O | > 240 | 157 | > 240 | > 240 | –
CCCCCCCCCCOC1O[C@H](CO)[C@H](O)[C@H](O)[C@H]1O (mixture of isomers) | 180 | 107 | 192 | 140 | –
CCCCCCCCCCCCCCCCO[C@H]1O[C@H](CO)[C@H](O)[C@H](O)[C@H]1O | 54.6 | 38.5 | > 240 | 42.7 | –
CCCCCCCCCCCCCCCO[C@H]1O[C@H](CO)[C@H](O)[C@H](O)[C@H]1O | 61.3 | 46.8 | > 240 | 52.5 | –
CCCCCCCCCCCO[C@H]1O[C@H](CO)[C@H](O)[C@H](O)[C@H]1O | 196 | 102 | 151 | 152 | –
CCCCCCCCCCCCCO[C@H]1O[C@H](CO)[C@H](O)[C@H](O)[C@H]1O | 73.3 | 51.8 | 89.9 | 75.1 | –
CCCCCCCCCCCCO[C@@H]1O[C@H](CO)[C@H](O)[C@H](O)[C@H]1O | 151 | 77.2 | 162 | 97.8 | –
CCCCCCCCCCCCCCCCOC1O[C@H](CO)[C@H](O)[C@H](O)[C@H]1O (mixture of isomers) | 45 | 25.3 | > 240 | 32.2 | 94.3
CCCCCCCCCCCCCOC1O[C@H](CO)[C@H](O)[C@H](O)[C@H]1O (mixture of isomers) | 57.1 | 39.3 | 54.3 | 38.7 | –
CCCCCCCCCCCCCCCCO[C@@H]1O[C@H](CO)[C@H](O)[C@H](O)[C@H]1O | > 240 | 151 | > 240 | > 240 | –
CCCCCCCCCCO[C@H]1O[C@H](CO)[C@H](O)[C@H](O)[C@H]1O | > 240 | 144 | > 240 | > 240 | –
CCCCCCCCCCCCCCO[C@H]1O[C@H](CO)[C@H](O)[C@H](O)[C@H]1O | 67 | 49.6 | 68.1 | 72.8 | –
CCCCCCCCCCCCO[C@H]1O[C@H](CO)[C@H](O)[C@H](O)[C@H]1O | 146 | 56.7 | 138 | 88.8 | –
